Laboratory results as given in patent US10183015B2, “Heterocyclic compounds and methods of use” (Medivation Technologies LLC, priority 2015, dated 2019).
pIC50: −log10 of the molar value. “And” between values parts separate entries of the source, which are not always exact repeats. Identical values can stand only once.

Assays:
HepG2 cells = test: HepG2 cell viability under serum-free conditions (MTS); format: cell-based; settings: Homo sapiens
Description: Cancer cells such as HepG2 cells depend on SREBP activation and de novo lipogenesis to survive, particularly in low serum or serum-free conditions. Using this model, compounds were screened over 24 hours for the ability to block cleavage of SREBP to its active form and over 72 hours for an effect on cell viability under serum-free conditions.
For viability measurements, HepG2 cells were seeded at 5,000 cells per well in 96-well plates in DMEM supplemented with 10% FBS. After 1 day in culture, cells were treated with compounds (20 μM & 5 μM) for 3 days in DMEM without FBS. Viability was measured by MTS […]. […]

[1] = test system: diet-induced NASH obese insulin resistant mice; test: DIN mouse model: blood glucose, plasma insulin, HOMA-IR; format: in vivo; settings: for HOMA-IR index reduction / HOMA-IR day 0 / blood glucose day 0 / plasma insulin day 0: 20 mg/kg; for HOMA-IR day 0 / blood glucose day 0 / plasma insulin day 0: day 0 (baseline); for HOMA-IR day 42 / blood glucose day 42 / plasma insulin day 42: day 42, 20 mg/kg; for HOMA-IR day 70 / blood glucose day 70 / plasma insulin day 70: day 70, 20 mg/kg;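 for blood glucose day 0: blood glucose in mg/dL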;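 for blood glucose day 42: blood glucose in mg/dL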;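 for blood glucose day 70: blood glucose in mg/dL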
Description: (§1) Male C57Bl/6J mice (8 weeks old) were housed in enriched ventilated cages (31×12.5×12.7 cm) throughout the experimental phase. Animals' cages litters were changed at least once a week. Animal were housed 5 per cage on inverted 12-hour light cycle (at 09:00 am lights off), 22±2° C. and 55±10% relative humidity. The acclimation period was 20 days. During the acclimation period, all mice were fed a standard diet (RM1 (E) 801492, SDS) and tap water ad libitum. After the acclimation period, mice were fed with the DIN diet (60% fat, cholesterol enriched) and fructose-enriched tap water ad libitum until the end of the experiment.
(§2) At 6 weeks of diet, mice were 4-hour fasted (09:00 am to 1:00 pm) and blood (150 μl/EDTA) was collected at 01:00 pm by retro-orbital bleeding under isoflurane anesthesia. Mice were then allocated in 2 homogenous groups (n=12/group) according to their plasma levels of ALT (average levels: 685U/L), AST (average levels: 627U/L) and HOMA-IR index (average value: 4.7), into 2 homogenous groups (see values at day 0 in Tables 15A and 15B ALT/AST and Tables 16A and 16B for HOMA-IR). Mice were then treated once daily by oral gavage with vehicle (Group 1) or Compound #37 at 20 mg/kg (Group 2) for 70 days.
To investigate whether Compound #37 improves pre-existing steatosis/NASH pathology, a study was conducted using a 16-week diet-induced NASH mouse model. In this model, mice develop steatosis that progresses with inflammation and fibrosis that mimic many of the observed pathologies in human nonalcoholic fatty liver disease (NAFLD) and NASH (Hebbard & George, 2010). For 6 weeks, mice were fed a high-fat, high-cholesterol diet and provided drinking water containing fructose to induce liver pathology (Charlton et al, 2011). After 6 weeks, the mice were divided into 2 groups with similar mean aspartate aminotransferase (AST) and alanine aminotransferase (ALT) values (n=12 mice), although it should be noted that AST and ALT concentrations within both groups were higher and with greater variability than anticipated (e.g., mean ALT 677 U/L [SD, 401 U/L] in the vehicle control group and 693 U/L [SD, 365 U/L] in the Compound #37 group). After the animals were divided into 2 groups, the diet was continued for 10 additional weeks during which time 1 group received vehicle and the other was treated with 20 mg/kg/day Compound #37.

[2] = test system: diet-induced NASH obese insulin resistant mice; test: DIN mouse model: liver oil red O staining (% labeling); format: in vivo
Description: as §1, §2
Slides having a single hepatic lobe section stained with H&E and […] were digitized using a Nanozoomer from Hamamatsu. Sections were evaluated with knowledge of groups. […]

INSIG1 = test: DIN mouse model: hepatic INSIG1 gene expression; format: in vivo; set-up: key to 2^DDct: expression relative to vehicle group, normalized to 18S; settings: for 2^DDct / DDct / Dct / INSIG1: Gene Expression: INSIG1, 20 mg/kg group; for 18S: Gene Expression: INSIG1 table, 18S reference, 20 mg/kg group
Description: (§3) Gene expression analysis. Hepatic expression levels of genes involved in lipid metabolism (FAS, SREBP1, ACC1, SCD1), cholesterol metabolism (HMG-CoAR, LDLR), SREBP proteolysis (SCAP, INSIG1), ER stress (PERK), oxidative stress (NRF2), inflammation (MCP-1), and fibrosis (collagen 1α1) were quantified by RTqPCR. Expression level was normalized to 18S gene expression and relative expression to vehicle group was calculated with the […] method.
as §1, §2
(§4) Hepatic expression levels of genes involved in lipid (FAS, SREBP1, ACC1, SCD1), cholesterol metabolism (HMG-CoAR, LDLR), in SREBP proteolysis (SCAP, INSIG1), in ER stress (PERK), oxidative stress (NRF2), and inflammation (MCP-1) were not changed. However, expression of collagen 1α1, involved in liver fibrosis, was reduced by 66% in mice treated with Compound #37 (p<0.05 vs. vehicle).

HMGCoA = test: DIN mouse model: hepatic HMGCOA gene expression; format: in vivo; settings: liver, 20 mg/kg group
Description: as §3, §1, §2, §4

[3] = individual animals, vs vehicle mean, 20 mg/kg

## CC(C)Cc1cc(-c2nc(-c3ccc(NS(=O)(=O)C(F)(F)F)cc3Cl)cs2)ccn1 [Compound 37, N-(3-chloro-4-(2-(2-isobutylpyridin-4-yl)thiazol-4-yl)phenyl)-1,1,1-trifluoromethanesulfonamide]
HepG2 cells; HepG2, 72 h, 5 μM, 3 days, DMEM without FBS, read-out: Average Viability (% Inhibition, n = 3)
  cytotoxicity at 5 µM: 94%
HepG2 cells; HepG2, 72 h, 20 μM, 3 days, DMEM without FBS, read-out: Average Viability (% Inhibition, n = 3)
  cytotoxicity at 20 µM: 95%
HepG2 cells; HepG2, serum-free, read-out: IC50 for decreased viability of HepG2 cells
  pIC50: 5.68
[1]; day 42, not significant
  HOMA-IR index reduction: 50%
[1]; day 70, not significant
  HOMA-IR index reduction: 40%
[1]; group mean, n 12
  HOMA-IR day 0: 4.8 [mM × μU/mL]/22.5
  blood glucose day 0: 104 mg/dL
  plasma insulin day 0: 17 μU/mL
  HOMA-IR day 42: 3.7 [mM × μU/mL]/22.5
  blood glucose day 42: 133 mg/dL
  plasma insulin day 42: 11.5 μU/mL
[1]; individual animals
  HOMA-IR day 0: 2.7 [mM × μU/mL]/22.5 and 4.1 [mM × μU/mL]/22.5 and 23.6 [mM × μU/mL]/22.5 and 2.1 [mM × μU/mL]/22.5 (2×) and 2.3 [mM × μU/mL]/22.5 (2×) and 1.9 [mM × μU/mL]/22.5 and 1.8 [mM × μU/mL]/22.5 and 3.8 [mM × μU/mL]/22.5 and 1.6 [mM × μU/mL]/22.5 and 8.8 [mM × μU/mL]/22.5
  blood glucose day 0: 97 mg/dL and 113 mg/dL (2×) and 123 mg/dL and 106 mg/dL and 79 mg/dL and 95 mg/dL and 114 mg/dL and 102 mg/dL and 89 mg/dL and 112 mg/dL and 103 mg/dL
  plasma insulin day 0: 11.3 μU/mL and 14.7 μU/mL and 77.6 μU/mL and 8.1 μU/mL and 11.9 μU/mL and 6.9 μU/mL and 7.5 μU/mL (2×) and 13.6 μU/mL and 8.4 μU/mL and 31.9 μU/mL and 9 μU/mL
  HOMA-IR day 42: 3.8 [mM × μU/mL]/22.5 (2×) and 3.3 [mM × μU/mL]/22.5 and 5.0 [mM × μU/mL]/22.5 and 7.7 [mM × μU/mL]/22.5 and 2.8 [mM × μU/mL]/22.5 (3×) and 1.9 [mM × μU/mL]/22.5 and 3.7 [mM × μU/mL]/22.5 and 3.5 [mM × μU/mL]/22.5 and 3.4 [mM × μU/mL]/22.5
  blood glucose day 42: 133 mg/dL and 139 mg/dL (2×) and 112 mg/dL and 126 mg/dL and 128 mg/dL and 132 mg/dL and 131 mg/dL and 138 mg/dL and 151 mg/dL and 140 mg/dL and 127 mg/dL
  plasma insulin day 42: 11.6 μU/mL and 9.5 μU/mL and 18.0 μU/mL and 24.8 μU/mL and 8.9 μU/mL and 11.8 μU/mL and 5.8 μU/mL and 8.2 μU/mL (2×) and 10.0 μU/mL and 10.2 μU/mL and 10.7 μU/mL
  HOMA-IR day 70: 7.5 [mM × μU/mL]/22.5 and 2.6 [mM × μU/mL]/22.5 and 6.0 [mM × μU/mL]/22.5 and 5.8 [mM × μU/mL]/22.5 and 3.9 [mM × μU/mL]/22.5 and 2.8 [mM × μU/mL]/22.5 and 6.5 [mM × μU/mL]/22.5 and 2.5 [mM × μU/mL]/22.5 and 3.8 [mM × μU/mL]/22.5 and 3.1 [mM × μU/mL]/22.5 and 4.5 [mM × μU/mL]/22.5
  blood glucose day 70: 138 mg/dL and 132 mg/dL and 135 mg/dL and 157 mg/dL and 136 mg/dL and 124 mg/dL and 127 mg/dL and 100 mg/dL and 114 mg/dL and 130 mg/dL and 141 mg/dL
  plasma insulin day 70: 21.9 μU/mL and 8.0 μU/mL and 18.1 μU/mL and 15.1 μU/mL and 11.5 μU/mL and 9.3 μU/mL and 20.6 μU/mL and 10.3 μU/mL and 13.4 μU/mL and 9.8 μU/mL and 12.9 μU/mL
[1]; group mean, n 11
  HOMA-IR day 70: 4.5 [mM × μU/mL]/22.5
  blood glucose day 70: 130 mg/dL
  plasma insulin day 70: 13.7 μU/mL
[2]; 20 mg/kg group, mean, n 11
  O red Oil labeling: 12.1%
[2]; 20 mg/kg, individual animals
  O red Oil labeling: 12.9% and 15.1% and 0.9% and 18.6% and 19.3% and 21.3% and 0.3% and 8.3% and 19.5% and 13.0% and 4.2%
INSIG1; individual animal
  2^DDct: 2.07 and 2.24 and 0.78 (2×) and 1.54 and 1.51 and 1.65 and 1.45 and 1.43 and 0.46 and 2.84
  DDct: −1.05 and −1.17 and 0.36 (2×) and −0.63 and −0.60 and −0.73 and −0.54 and −0.52 and 1.13 and −1.51
  Dct: 9.85 and 9.73 and 11.26 (2×) and 10.27 and 10.3 and 10.17 and 10.36 and 10.38 and 12.03 and 9.39
  INSIG1: 22.4 and 22.28 and 24.1 and 22.7 and 22.65 and 22.76 (2×) and 22.09 and 22.89 and 23.58 and 21.74
INSIG1; mean, n 11
  2^DDct: 1.52
  DDct: −0.44
  Dct: 10.5
  INSIG1: 22.7
  18S: 12.3
INSIG1; individual animal, 20 mg/kg
  18S: 12.55 (2×) and 12.84 and 12.43 and 12.35 (2×) and 12.59 and 11.73 and 12.51 and 11.5 and 11.55
HMGCoA; individual animals, normalised to 18S, 20 mg/kg
  HMGCOA Dct: 12.8 and 12.14 and 13.78 and 12.65 and 13.57 and 12.83 and 13.03 and 12.86 and 14.49 and 14.63 and 12.37
HMGCoA; [3]
  HMGCOA 2^DDct: 1.34 and 2.12 and 0.68 and 1.49 and 0.79 and 1.31 and 1.14 and 1.28 and 0.41 and 0.38 and 1.8
  HMGCOA DDct: −0.42 and −1.08 and 0.56 and −0.57 and 0.35 and −0.39 and −0.19 and −0.36 and 1.27 and 1.41 and −0.85
HMGCoA; individual animals, 20 mg/kg
  HMGCoA (Ct): 25.35 and 24.69 and 26.62 and 25.08 and 25.92 and 25.42 and 24.76 and 25.37 and 25.99 and 26.18 and 24.72
HMGCoA; mean, n 11
  HMGCOA 2^DDct: 1.16
  HMGCOA DDct: −0.03
  HMGCOA Dct: 13.2
  HMGCoA (Ct): 25.5
